Assay results: patent publication US20130303509A1, “NAMPT INHIBITORS” (AbbVie Inc., priority 2012, published 2013)

System: PC3 cells
Assay: NAMPT Cell Proliferation Assay
Format: cell-based
Conditions: Homo sapiens, PC-3, 120 h, 5 days incubation, cell viability by Cell Titer Glo
Outline: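 Five-day CellTiter-Glo viability readout in PC3 cells grown in RPMI/10% heat-inactivated FBS. Compounds added after overnight attachment as a 10-fold dilution series, […]. Percent inhibition fitted to sigmoidal dose-response to derive IC50.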

SMILES	IC50
O=C(Nc1ccc(S(=O)(=O)C2CCN(C(=O)c3cccc(Cl)c3)CC2)cc1)C1CN(c2cccnn2)C1 [Example 564, N-(4-{[1-(3-chlorobenzoyl)piperidin-4-yl]sulfonyl}phenyl)-1-(pyridazin-3-yl)azetidine-3-carboxamide]	79.2 nM
CC(C)(C)c1ccc(C(=O)N2CCC(S(=O)(=O)c3ccc(NC(=O)C4CN(c5cccnn5)C4)cc3)CC2)cc1 [Example 565, N-(4-{[1-(4-tert-butylbenzoyl)piperidin-4-yl]sulfonyl}phenyl)-1-(pyridazin-3-yl)azetidine-3-carboxamide]	74.1 nM
COc1ccc(C(=O)N2CCC(S(=O)(=O)c3ccc(NC(=O)C4CN(c5cccnn5)C4)cc3)CC2)cc1 [Example 566, N-(4-{[1-(4-methoxybenzoyl)piperidin-4-yl]sulfonyl}phenyl)-1-(pyridazin-3-yl)azetidine-3-carboxamide]	82.2 nM
Cc1ccc(C(=O)N2CCC(S(=O)(=O)c3ccc(NC(=O)C4CN(c5cccnn5)C4)cc3)CC2)cc1 [Example 567, N-(4-{[1-(4-methylbenzoyl)piperidin-4-yl]sulfonyl}phenyl)-1-(pyridazin-3-yl)azetidine-3-carboxamide]	76.5 nM
O=C(Nc1ccc(S(=O)(=O)C2CCN(C(=O)C3CCCCC3)CC2)cc1)C1CN(c2cccnn2)C1 [Example 568, N-(4-{[1-(cyclohexylcarbonyl)piperidin-4-yl]sulfonyl}phenyl)-1-(pyridazin-3-yl)azetidine-3-carboxamide]	48.2 nM
O=C(Nc1ccc(S(=O)(=O)C2CCN(C(=O)CC3CC3)CC2)cc1)C1CN(c2cccnn2)C1 [Example 569, N-(4-{[1-(cyclopropylacetyl)piperidin-4-yl]sulfonyl}phenyl)-1-(pyridazin-3-yl)azetidine-3-carboxamide]	207 nM
COc1ccccc1C(=O)N1CCC(S(=O)(=O)c2ccc(NC(=O)C3CN(c4cccnn4)C3)cc2)CC1 [Example 570, N-(4-{[1-(2-methoxybenzoyl)piperidin-4-yl]sulfonyl}phenyl)-1-(pyridazin-3-yl)azetidine-3-carboxamide]	631 nM
CC[C@H](C(=O)N1CCC(S(=O)(=O)c2ccc(NC(=O)C3CN(c4cccnn4)C3)cc2)CC1)c1ccccc1 [Example 571, N-[4-({1-[(2S)-2-phenylbutanoyl]piperidin-4-yl}sulfonyl)phenyl]-1-(pyridazin-3-yl)azetidine-3-carboxamide]	118 nM
CC(C)c1ccc(C(=O)N2CCC(S(=O)(=O)c3ccc(NC(=O)C4CN(c5cccnn5)C4)cc3)CC2)cc1 [Example 572, N-[4-({1-[4-(propan-2-yl)benzoyl]piperidin-4-yl}sulfonyl)phenyl]-1-(pyridazin-3-yl)azetidine-3-carboxamide]	59.8 nM
O=C(Nc1ccc(S(=O)(=O)C2CCN(C(=O)c3ccc(Cl)cc3)CC2)cc1)C1CN(c2cccnn2)C1 [Example 573, N-(4-{[1-(4-chlorobenzoyl)piperidin-4-yl]sulfonyl}phenyl)-1-(pyridazin-3-yl)azetidine-3-carboxamide]	81.9 nM
O=C(Nc1ccc(S(=O)(=O)C2CCN(C(=O)c3ccccc3)CC2)cc1)C1CN(c2cccnn2)C1 [Example 574, N-{4-[(1-benzoylpiperidin-4-yl)sulfonyl]phenyl}-1-(pyridazin-3-yl)azetidine-3-carboxamide]	55.3 nM
O=C(Nc1ccc(S(=O)(=O)C2CCN(C(=O)CCC(F)(F)F)CC2)cc1)C1CN(c2cccnn2)C1 [Example 575, 1-(pyridazin-3-yl)-N-(4-{[1-(4,4,4-trifluorobutanoyl)piperidin-4-yl]sulfonyl}phenyl)azetidine-3-carboxamide]	269 nM
O=C(Nc1ccc(S(=O)(=O)C2CCN(C(=O)c3cc(F)ccc3F)CC2)cc1)C1CN(c2cccnn2)C1 [Example 576, N-(4-{[1-(2,5-difluorobenzoyl)piperidin-4-yl]sulfonyl}phenyl)-1-(pyridazin-3-yl)azetidine-3-carboxamide]	84.8 nM
O=C(Nc1ccc(S(=O)(=O)C2CCN(C(=O)c3ccccc3F)CC2)cc1)C1CN(c2cccnn2)C1 [Example 577, N-(4-{[1-(2-fluorobenzoyl)piperidin-4-yl]sulfonyl}phenyl)-1-(pyridazin-3-yl)azetidine-3-carboxamide]	93 nM
Cc1ccccc1C(=O)N1CCC(S(=O)(=O)c2ccc(NC(=O)C3CN(c4cccnn4)C3)cc2)CC1 [Example 578, N-(4-{[1-(2-methylbenzoyl)piperidin-4-yl]sulfonyl}phenyl)-1-(pyridazin-3-yl)azetidine-3-carboxamide]	88.7 nM
O=C(Nc1ccc(S(=O)(=O)C2CCN(C(=O)Cc3ccc(F)cc3)CC2)cc1)C1CN(c2cccnn2)C1 [Example 579, N-[4-({1-[(4-fluorophenyl)acetyl]piperidin-4-yl}sulfonyl)phenyl]-1-(pyridazin-3-yl)azetidine-3-carboxamide]	267 nM

Further lines, results first:

IC50	SMILES
78 nM	Cc1cccc(C(=O)N2CCC(S(=O)(=O)c3ccc(NC(=O)C4CN(c5cccnn5)C4)cc3)CC2)c1 [Example 580, N-(4-{[1-(3-methylbenzoyl)piperidin-4-yl]sulfonyl}phenyl)-1-(pyridazin-3-yl)azetidine-3-carboxamide]
80.7 nM	Cc1cccc(C(=O)N2CCC(S(=O)(=O)c3ccc(NC(=O)C4CN(c5cccnn5)C4)cc3)CC2)c1C [Example 581, N-(4-{[1-(2,3-dimethylbenzoyl)piperidin-4-yl]sulfonyl}phenyl)-1-(pyridazin-3-yl)azetidine-3-carboxamide]
627 nM	O=C(Nc1ccc(S(=O)(=O)C2CCN(C(=O)Cc3cccc(F)c3)CC2)cc1)C1CN(c2cccnn2)C1 [Example 582, N-[4-({1-[(3-fluorophenyl)acetyl]piperidin-4-yl}sulfonyl)phenyl]-1-(pyridazin-3-yl)azetidine-3-carboxamide]
87.4 nM	O=C(Nc1ccc(S(=O)(=O)C2CCN(C(=O)c3cccc(F)c3)CC2)cc1)C1CN(c2cccnn2)C1 [Example 583, N-(4-{[1-(3-fluorobenzoyl)piperidin-4-yl]sulfonyl}phenyl)-1-(pyridazin-3-yl)azetidine-3-carboxamide]
87.2 nM	O=C(Nc1ccc(S(=O)(=O)C2CCN(C(=O)c3cccc(C(F)(F)F)c3)CC2)cc1)C1CN(c2cccnn2)C1 [Example 584, 1-(pyridazin-3-yl)-N-[4-({1-[3-(trifluoromethyl)benzoyl]piperidin-4-yl}sulfonyl)phenyl]azetidine-3-carboxamide]
283 nM	O=C(Nc1ccc(S(=O)(=O)C2CCN(C(=O)Cc3cc(F)cc(F)c3)CC2)cc1)C1CN(c2cccnn2)C1 [Example 585, N-[4-({1-[(3,5-difluorophenyl)acetyl]piperidin-4-yl}sulfonyl)phenyl]-1-(pyridazin-3-yl)azetidine-3-carboxamide]
107 nM	O=C(Nc1ccc(S(=O)(=O)C2CCN(C(=O)c3ccc(F)cc3F)CC2)cc1)C1CN(c2cccnn2)C1 [Example 586, N-(4-{[1-(2,4-difluorobenzoyl)piperidin-4-yl]sulfonyl}phenyl)-1-(pyridazin-3-yl)azetidine-3-carboxamide]
81.4 nM	O=C(Nc1ccc(S(=O)(=O)C2CCN(C(=O)c3ccc(C(F)(F)F)cc3)CC2)cc1)C1CN(c2cccnn2)C1 [Example 587, 1-(pyridazin-3-yl)-N-[4-({1-[4-(trifluoromethyl)benzoyl]piperidin-4-yl}sulfonyl)phenyl]azetidine-3-carboxamide]
113 nM	O=C(Nc1ccc(S(=O)(=O)C2CCN(C(=O)c3ccc(F)cc3)CC2)cc1)C1CN(c2cccnn2)C1 [Example 588, N-(4-{[1-(4-fluorobenzoyl)piperidin-4-yl]sulfonyl}phenyl)-1-(pyridazin-3-yl)azetidine-3-carboxamide]
97.9 nM	O=C(Nc1ccc(S(=O)(=O)C2CCN(C(=O)c3cccc(F)c3F)CC2)cc1)C1CN(c2cccnn2)C1 [Example 589, N-(4-{[1-(2,3-difluorobenzoyl)piperidin-4-yl]sulfonyl}phenyl)-1-(pyridazin-3-yl)azetidine-3-carboxamide]
82.2 nM	O=C(Nc1ccc(S(=O)(=O)C2CCN(C(=O)c3ccc(Cl)cc3Cl)CC2)cc1)C1CN(c2cccnn2)C1 [Example 590, N-(4-{[1-(2,4-dichlorobenzoyl)piperidin-4-yl]sulfonyl}phenyl)-1-(pyridazin-3-yl)azetidine-3-carboxamide]
93.6 nM	O=C(Nc1ccc(S(=O)(=O)C2CCN(C(=O)c3cccc4ccccc34)CC2)cc1)C1CN(c2cccnn2)C1 [Example 591, N-(4-{[1-(naphthalen-1-ylcarbonyl)piperidin-4-yl]sulfonyl}phenyl)-1-(pyridazin-3-yl)azetidine-3-carboxamide]
620 nM	O=C(Nc1ccc(S(=O)(=O)C2CCN(C(=O)C3CC3)CC2)cc1)C1CN(c2cccnn2)C1 [Example 592, N-(4-{[1-(cyclopropylcarbonyl)piperidin-4-yl]sulfonyl}phenyl)-1-(pyridazin-3-yl)azetidine-3-carboxamide]
63.4 nM	O=C(Nc1ccc(S(=O)(=O)C2CCN(C(=O)c3cc(F)cc(F)c3)CC2)cc1)C1CN(c2cccnn2)C1 [Example 593, N-(4-{[1-(3,5-difluorobenzoyl)piperidin-4-yl]sulfonyl}phenyl)-1-(pyridazin-3-yl)azetidine-3-carboxamide]
47.8 nM	CC(C)(C)C(=O)N1CCC(S(=O)(=O)c2ccc(NC(=O)C3CN(c4cccnn4)C3)cc2)CC1 [Example 594, N-(4-{[1-(2,2-dimethylpropanoyl)piperidin-4-yl]sulfonyl}phenyl)-1-(pyridazin-3-yl)azetidine-3-carboxamide]
80.6 nM	CC(C)(C)CC(=O)N1CCC(S(=O)(=O)c2ccc(NC(=O)C3CN(c4cccnn4)C3)cc2)CC1 [Example 595, N-(4-{[1-(3,3-dimethylbutanoyl)piperidin-4-yl]sulfonyl}phenyl)-1-(pyridazin-3-yl)azetidine-3-carboxamide]
84.6 nM	COc1cccc(C(=O)N2CCC(S(=O)(=O)c3ccc(NC(=O)C4CN(c5cccnn5)C4)cc3)CC2)c1 [Example 596, N-(4-{[1-(3-methoxybenzoyl)piperidin-4-yl]sulfonyl}phenyl)-1-(pyridazin-3-yl)azetidine-3-carboxamide]
